Data set [1] can be described thus: Log D, 1-octanol/buffer shake flask. The settings on record: pH 7.4. The data set is classed as physicochemical. The protocol: The Log D assay was a miniaturized 1-octanol/buffer shake flask method followed by LC/MS/MS analysis, as follows.
The test compounds or control compounds Nadolol, Chlorpromazine Hydrochloride and Propranolol Hydrochloride were dissolved in 100% DMSO to obtain 10 mM solutions, which were transferred to 96-well polypropylene cluster tubes; 2 μL/well. 1-octanol saturated with 0.1 M phosphate buffer (149 μL/well) and 0.1 M phosphate buffer saturated with 1-octanol (149 μL/well) were added to the tubes, respectively, and each tube was vigorously mixed for 2 minutes and then shaked at a speed of 800 rpm at room temperature for 1 hour, followed by centrifugation at 4000 rpm for 5 minutes at room temperature. Thereafter, for the test compounds and the Chlorpromazine Hydrochloride and Propranolol Hydrochloride, the sample of the buffer layer was diluted by a factor of 50-fold and the sample of 1-octanol layer was diluted by a factor of 2000-fold with internal standard (IS) solution. For Nadolol, the sample of the buffer layer was diluted by a factor of 1000-fold and the sample of 1-octanol layer was diluted by a factor of 400-fold with internal standard (IS) solution. The samples were analyzed using a triple quadrupole mass spectrometer. Peak areas were corrected by dilution factors and embedded internal standard, and the ratio of the corrected peak areas was used to calculate the Log D value. The Log D value for each compound will be calculated by the following equation: […]

Data set [2] can be described thus: Human liver microsome metabolic stability. The data set is classed as in vitro ADME. The settings on record: human liver microsomes; for half-life at 1 µM: human, liver microsomes, read-out: HLM T1/2; for HLM T1/2: 1 µM. From the text: Liver microsomes which are subcellular particles derived from endoplasmic reticulum of hepatic cells were used for evaluating the tested compounds. These particles are rich in drug metabolizing enzymes, including the cytochrome p-450 family. Liver microsomes are a recommended test system for various in vitro drug metabolism and pharmacokinetics (DMPK) studies. CLint values lower than […] are considered suitable for drug development.
Liver Microsome Metabolic Stability Assay (NADPH): The liver microsome stability assay was evaluated through pre-incubation with HLMs. A liver microsome mixture (pooled from multiple donors) at a concentration of 0.5 mg/mL, and the test compound at a concentration of 1 μM, were warmed in the presence of a NADPH regenerating system (about 1.0 mM) at 37° C. Positive controls, including testosterone (a CYP3A4 substrate), propafenone (a CYP2D6 substrate), and diclofenac (a CYP2C9) substrate, were concurrently incubated with the HLMs, in the presence of the NADPH regenerating system (1.0 mM). Samples were extracted during incubation at multiple intervals: 0, 5, 15, 30, 45 and 60 minutes. To terminate the reactions, the samples were promptly mixed with cooled acetonitrile that included an internal standard (IS). An additional compound was incubated with the HLMs in the absence of the NADPH regeneration system, from which a sample was taken at the 60-minute interval.
The clearance of the test compound in the samples was subsequently analyzed by LC-MS/MS based on the peak area ratios of the analyte to the IS.
The following equation was used to calculate the microsome clearance: […]
Liver weight: 40 grams/kg, 30 grams/kg, 32 grams/kg, 20 grams/kg and 88 grams/kg, for rat, monkey, dog, human and mouse, respectively.
(In general: Liver microsomes are a subcellular fraction often used to study metabolism.)

Another data set deals with CYP3A4. In words: CYP inhibition / time-dependent inhibition, CYP3A4_Midazolam. The data set is classed as in vitro ADME, human. As to conditions: role: inhibitor; substrate midazolam 2.0 μM; CYP TDI ratio. The protocol: The time-dependent inactivation potency of the test compound to CYP enzymatic activities was assessed by the pre-incubation of the human liver microsomes with the test compound in the presence and absence of NADPH, followed by the incubation with the discrete marker substrates, as follows.
Pre-incubation with human liver microsomes (HLMs): The TDI inactivation potency on CYP enzymatic activities was evaluated through pre-incubation with HLMs (Corning). A liver microsome mixture at a concentration of 0.1 mg/mL, and the test compound at 8 different concentrations (0, 0.05, 0.165, 0.5, 1.65, 5.0, 16.5, or 50.0 μM) was warmed at 37° C. for 10 minutes. Concurrently, a set of known time-dependent inactivators was also prepared in duplicate for comparison. Following this, NADPH (1.0 mM) was added to one group (Group 1), and an equal volume of potassium phosphate buffer to the second group (Group 2), marking the beginning of a 30-minute pre-incubation at 37° C.
Incubation: After pre-incubation, the marker substrate, or marker substrate plus NADPH was added to the mixture, thereby initiating the incubation. The duration of the incubation was dependent on the type of CYP isoform being evaluated. For example, with the CYP3A isoform, the mixture was incubated over 3 minutes utilizing midazolam as the marker substrate (2.0 μM), verapamil as the standard inactivator (3.5 μM).
Termination of Reaction: Following the incubation, ice-cooled acetonitrile containing the internal standard (IS) was added to halt the reactions. Metabolites generated from the marker substrates were then measured via LC-MS/MS, assessed based on peak area ratios of the analyte to IS.

In the next data set the target is T1, hTRPV1 (Homo sapiens, UniProt Q8NER1).
T1 construct: CDS of NM_080704.4, inserted into the multiple cloning site of pcDNA3.1(+); host or cells: CHO/hKv7.2/3
T1 sequence (Q8NER1 whole entry): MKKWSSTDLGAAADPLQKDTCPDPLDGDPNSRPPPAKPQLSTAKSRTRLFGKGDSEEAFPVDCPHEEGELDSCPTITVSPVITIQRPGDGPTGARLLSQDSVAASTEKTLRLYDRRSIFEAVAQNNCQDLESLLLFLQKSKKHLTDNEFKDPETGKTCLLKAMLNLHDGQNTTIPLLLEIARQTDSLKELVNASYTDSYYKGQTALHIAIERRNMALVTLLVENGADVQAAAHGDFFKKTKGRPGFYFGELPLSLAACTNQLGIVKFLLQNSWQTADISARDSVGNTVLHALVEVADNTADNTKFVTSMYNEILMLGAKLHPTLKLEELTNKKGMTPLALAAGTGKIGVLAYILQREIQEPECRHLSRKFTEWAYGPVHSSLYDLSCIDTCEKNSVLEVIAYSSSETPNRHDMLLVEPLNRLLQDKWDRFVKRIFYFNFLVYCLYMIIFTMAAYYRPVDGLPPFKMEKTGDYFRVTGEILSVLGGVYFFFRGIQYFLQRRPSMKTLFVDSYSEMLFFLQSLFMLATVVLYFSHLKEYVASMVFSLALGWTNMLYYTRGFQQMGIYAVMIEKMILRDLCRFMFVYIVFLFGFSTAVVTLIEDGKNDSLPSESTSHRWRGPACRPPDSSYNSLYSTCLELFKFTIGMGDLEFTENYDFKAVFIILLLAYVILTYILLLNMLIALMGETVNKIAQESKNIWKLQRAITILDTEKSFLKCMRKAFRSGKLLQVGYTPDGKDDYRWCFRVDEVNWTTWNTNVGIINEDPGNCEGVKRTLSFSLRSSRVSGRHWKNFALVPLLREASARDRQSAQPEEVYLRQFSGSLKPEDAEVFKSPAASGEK
In words: TRPV1 HCS, Fluo-8 calcium flux, capsaicin activation, CHO cells expressing hTRPV1. Format: cell-based. The settings on record: cells expressing TRPV1; read-out: TRPV1 IC50. The protocol:
Cell culture: Chinese hamster ovary (CHO) cell-line cells with constitutive expression of human hTRPV1 channels (B'SYS GmbH, Switzerland) were cultured in F-12 nutrient mixture (Biological Industries) supplemented with 10% fetal bovine serum (Biological Industries) and 1% penicillin-streptomycin (Biological Industries) in a humidified 5% CO2 incubator at 37° C. To maintain the stable expression of hTRPV1, antibiotic selection (G418 500 μg/ml) was applied.
High content screen (HCS) using Fluo-8 No Wash Calcium flux Assay Kit: Fluo-8 No Wash Calcium Assay Kit (Abcam, ab112129) was used with CHO stably or transiently expressing TRPV1 to screen compounds against the hTRPV1 ion channel target. The cells were pre-loaded with Fluo-8AM which is membrane permeable. The AM groups of the Fluo-8AM were then being cleaved by intracellular esterase, trapping the Fluo8 in the cell. […] The relative fluorescence signal was calculated following background subtraction, comparing the fluorescence at each time point to its maximal level measured following Ionomycin application in the end.
According to optimization process to achieve uniform and consistent screening condition of molecules the following protocol was established: Cells were seeded in 384-well, black-walled, clear-bottomed, at a density of 5,000 cells per well 24 h before the assay conductance and incubated overnight in their normal growth medium. On the experiment day the medium was replaced in each well with HBSS, HEPES, and compound/vehicle (0.2% DMSO). Dye solution (prepared according to the manufacturer) was added to the wells and plates are incubated for 1.5 h light-protected in room temperature. The Tecan Spark plate reader injectors were then primed with capsaicin and Ionomycin for channel activation and data normalization, respectively. […] To calculate IC50 values, the data was fitted to sigmoidal regression line using Prism GraphPad. The fitting was constrained to a minimum of 0 and a maximal response of about 1 unless a different maximal response could be identified.
Background: Calcium assays in cells follow changes in intracellular calcium, usually with a dye or a luminescent sensor.

A further data set concerns the target T2, hKv7.2/3 (Homo sapiens, UniProt O43525+O43526).
T2 construct: host or cells: CHO
In words: Kv7.2/7.3 HCS, FLIPR potassium (thallium) assay, CHO/hKv7.2/3. The data set is classed as cell-based. As to conditions: Table 1; read-out: Kv7.2/7.3 IC50. The method, then: Cell culture: Chinese hamster ovary (CHO) cell-line cells with a constitutive expression of human Kv7.2/3 channels (B'SYS GmbH, Switzerland) were cultured in F-12 nutrient mixture (Biological Industries) supplemented with 10% fetal bovine serum (Biological Industries) and 1% penicillin-streptomycin (Biological Industries) in a humidified 5% CO2 incubator at 37° C. To maintain the stability of human Kv7.2/7.3 expression antibiotic selection was added (Puromycin 5 μg/ml).
High content screen (HCS) using FLIPR Potassium Assay Kit: A FLIPR Potassium Assay Kit (R8222 FLIPR Potassium Assay Explorer Kits, Molecular Devices) was used with the CHO/hKv7.2/3 cell line to screen molecules against the hKv7.2/7.3 ion channel target. The assay exploits the permeability of thallium ions (Tl+) through potassium (K+) channels. In this assay, Tl+ indicator dye is used to produce a bright fluorescent signal upon the binding to Tl+ conducted through the potassium channels. The intensity of the Tl+ signal is proportional to the number of potassium channels in the open state. Therefore, it provides a functional indication of the potassium channel activity. To activate the voltage-gate potassium channels, the cells were stimulated with a mixture of K+ and Tl+ to depolarize the cell membrane. The fluorescence increase in the assay represents the influx of Tl+ into the cell specifically through the potassium channel, providing a functional read-out of hKv7.2/3 activity using a fluorescent plate reader coupled with injectors used to activate the channels.
According to optimization process to achieve uniform and consistent screening conditions the following protocol was established: Cells were seeded in 384-well, black-walled, clear-bottomed Greiner #781091, at a density of 5000 cells per well 24 hours before the assay conductance and incubated overnight in their normal growth medium. On the experiment day the medium was replaced with HBSS, HEPES, and the test compound/vehicle (0.2% DMSO). Dye solution (prepared according to the manufacturer) was added to the plates, which were incubated for 1.5 h light-protected in room temperature. Tecan Spark reader plate injectors were primed with Tl+(1 mM Tl2SO4) or Tl++K+(1 mM Tl2SO4; 5 mM K2SO4) for channel activation and data correction. […] To calculate EC50 values, the data was fitted to sigmoidal regression using Prism GraphPad. The fitting was constrained to a minimum of 1 and a maximal response of about 3.6 unless a different maximal response could be clearly identified.

Another data set can be described thus: Kinetic solubility. The data set is classed as physicochemical. The settings on record: hhbs buffer, aqueous buffer, Table 1; read-out: Kinetic Sol. The protocol:
Solubility measurements were performed prior to each in vitro assay to ensure accurate dose response and reproducibility. Briefly, each compound was dissolved to 60 mM in DMSO and calibration curve was performed from 1.5-200 μM using absorbance spectra analysis and determination of λmax. Calibration curve served as the readout for all following assays. The 60 mM stock solution was used to make a 120 μM target concentration of 0.2% DMSO in the appropriate buffer of the in vitro related assay (i.e. HHBS buffer). Solubilized compounds were vortex for 10 minutes followed by centrifugation for 15 minutes in 5000 RPM and the supernatant was recovered for absorbance spectra analysis between 200-400 nm.

Where [3] appears, read: 1-octanol/phosphate buffer, read-out: LogD.

The logD is lipophilicity at a set pH, counting ionised and neutral species. One may read the IC50 as the concentration at which inhibition is half-maximal.

Structures are written as SMILES. ≈ marks a conversion by molar mass, not a printed value. Like-named read-outs stand apart in the source and are kept apart here.

T2 sequence (O43525 whole entry): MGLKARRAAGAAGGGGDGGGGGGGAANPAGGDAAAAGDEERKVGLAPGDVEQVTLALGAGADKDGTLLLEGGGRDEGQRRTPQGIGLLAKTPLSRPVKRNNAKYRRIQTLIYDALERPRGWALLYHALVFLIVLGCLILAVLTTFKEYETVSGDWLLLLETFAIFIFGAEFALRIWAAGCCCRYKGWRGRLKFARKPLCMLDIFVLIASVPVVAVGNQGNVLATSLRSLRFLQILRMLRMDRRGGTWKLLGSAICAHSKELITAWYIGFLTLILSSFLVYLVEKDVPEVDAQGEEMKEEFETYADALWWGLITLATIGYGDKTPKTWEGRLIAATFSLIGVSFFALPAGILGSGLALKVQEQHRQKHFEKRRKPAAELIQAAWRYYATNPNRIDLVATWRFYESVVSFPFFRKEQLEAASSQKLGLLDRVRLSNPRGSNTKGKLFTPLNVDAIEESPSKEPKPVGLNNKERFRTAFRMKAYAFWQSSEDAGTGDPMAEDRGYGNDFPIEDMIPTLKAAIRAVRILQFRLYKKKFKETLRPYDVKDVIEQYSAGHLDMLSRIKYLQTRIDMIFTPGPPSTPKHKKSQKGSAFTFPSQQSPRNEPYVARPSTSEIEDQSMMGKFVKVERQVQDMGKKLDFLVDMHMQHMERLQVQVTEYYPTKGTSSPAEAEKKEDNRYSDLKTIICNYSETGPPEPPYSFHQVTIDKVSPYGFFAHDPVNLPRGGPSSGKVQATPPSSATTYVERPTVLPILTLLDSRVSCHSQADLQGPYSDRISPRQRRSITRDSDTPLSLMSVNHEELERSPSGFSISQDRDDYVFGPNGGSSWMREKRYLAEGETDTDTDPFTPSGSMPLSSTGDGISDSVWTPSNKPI
T2 sequence (O43526 whole entry): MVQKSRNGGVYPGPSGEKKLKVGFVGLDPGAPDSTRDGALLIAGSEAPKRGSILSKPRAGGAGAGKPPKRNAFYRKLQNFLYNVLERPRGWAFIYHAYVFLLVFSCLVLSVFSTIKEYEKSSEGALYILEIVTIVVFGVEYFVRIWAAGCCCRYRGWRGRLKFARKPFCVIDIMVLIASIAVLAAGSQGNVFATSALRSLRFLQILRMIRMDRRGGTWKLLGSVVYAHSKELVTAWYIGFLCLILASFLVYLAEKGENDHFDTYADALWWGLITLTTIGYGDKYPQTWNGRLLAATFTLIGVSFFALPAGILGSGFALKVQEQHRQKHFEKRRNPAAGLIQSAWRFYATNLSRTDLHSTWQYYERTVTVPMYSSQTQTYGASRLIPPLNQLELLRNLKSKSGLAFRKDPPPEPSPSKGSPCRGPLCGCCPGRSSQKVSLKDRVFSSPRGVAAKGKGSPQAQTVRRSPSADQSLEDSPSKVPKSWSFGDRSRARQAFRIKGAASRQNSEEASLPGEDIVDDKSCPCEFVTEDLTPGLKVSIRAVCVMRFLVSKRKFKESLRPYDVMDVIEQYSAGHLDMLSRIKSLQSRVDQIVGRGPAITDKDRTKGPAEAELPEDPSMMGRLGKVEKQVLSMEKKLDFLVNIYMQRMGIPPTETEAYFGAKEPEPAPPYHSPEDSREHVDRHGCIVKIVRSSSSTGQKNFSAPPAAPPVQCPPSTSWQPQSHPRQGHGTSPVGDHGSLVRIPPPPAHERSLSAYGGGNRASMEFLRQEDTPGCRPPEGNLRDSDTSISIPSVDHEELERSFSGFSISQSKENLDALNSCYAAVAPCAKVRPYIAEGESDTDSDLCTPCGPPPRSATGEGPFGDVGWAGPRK

In the case of `CC(C)(C)c1cn(-c2cncc(CC(=O)N[C@@H]3COC[C@H]3O)c2)c2c(Cl)cc(Cl)cc12` [Compound 800], the logD in data set [1] (setting [3]) is > 4.1. Moreover, in data set [2], the half-life at 1 µM worked out at 15.4 min. Moreover, in the data set with CYP3A4, the “CYP-TDI (midazolam), (−)NADPH/(+)NADPH Ratio CYP3A4” value is >2.67.

Regarding `O=C(Cc1cncc(-n2cc(C3CC3)c3cc(Cl)cc(Cl)c32)c1)N[C@@H]1COC[C@H]1O` [Compound 790], the logD in data set [1] (setting [3]) was found to be 4.29. Further, the half-life at 1 µM in data set [2] stood at 26.7 min. The “CYP-TDI (midazolam), (−)NADPH/(+)NADPH Ratio CYP3A4” value in the data set on CYP3A4 came to 2.04.

For `O=C(Cc1cncc(-n2cc(C(F)(F)F)c3cc(Cl)cc(Cl)c32)c1)N[C@@H]1COC[C@H]1O` [Compound 770], the logD in data set [1] (setting [3]) was found to be 3.88. For the same compound, in data set [2], the half-life at 1 µM is 34.8 min. Further, the “CYP-TDI (midazolam), (−)NADPH/(+)NADPH Ratio CYP3A4” value in the data set with CYP3A4 is listed as >1.9.

Compound `O=C(Cc1cncc(N2CC3(CC3)c3cc(Cl)cc(Cl)c32)c1)NC1COCC1O` (centres unmarked) [Compound 730] came in with a logD in data set [1] of 3.22. Also, the “HLM T1/2” value in data set [2] turned out to be 9.9 min. Besides, the “CYP-TDI (midazolam), (−)NADPH/(+)NADPH Ratio CYP3A4” value in the data set with CYP3A4 is on record as >1.57.

On to `CC(C)c1cc(Cl)cc(Cl)c1C(=O)c1ccc(F)c(CC(=O)NCC2(O)CC2)c1` [Compound 573], for which, at hTRPV1, the IC50 worked out at 3 µM. Moreover, the EC50 on hKv7.2/3 was 7 µM. The log distribution coefficient (logD) in data set [1] (setting [3]) is 4.34. Besides, the solubility kinetic in the data set “Kinetic solubility” is 24 µM (≈ 10.5 µg/mL). Besides, the microsomal CLint at 1 µM in data set [2] (read-out: HLM Clint) is 441 µL/min/mg.

Consider `CC1(C)CN(c2cncc(CC(=O)NC3COCC3O)c2)c2c(Cl)cc(Cl)cc21` (centres unmarked) [Compound 720], for which the logD in data set [1] amounted to 3.24. For the same compound, the “HLM T1/2” value in data set [2] is given as 6.1 min. Also, the “CYP-TDI (midazolam), (−)NADPH/(+)NADPH Ratio CYP3A4” value with CYP3A4 was >1.6.

The values are drawn from patent US20260327211A1, “MODULATORS OF A POTASSIUM CHANNEL AND OF TRPV1 CHANNEL AND USES THEREOF” (Bsense Bio Therapeutics Ltd., priority 2023, published 2026).
